Measured values reported in patent publication EP2353599A1, “8-hydroxyquinolines as inhibitors of cathepsin B” (University of Ljubljana, priority 2010, dated 2011).

Biological target: cathepsin L (Homo sapiens, UniProt P07711)
Assay: Selectivity: Ki against cathepsin L, substrate Z-FR-AMC
Type: biochemical
Protocol: Activation buffer used with cathepsin L was 100 mM acetate buffer, pH 5.5 with 0.1 % PEG, 5 mM DTT and 1.5 mM EDTA and with cathepsin H was 100 mM phosphate buffer, pH 6.8 with 0.1 % PEG, 5 mM DTT and 1.5 mM EDTA. Table II. Ki values for 5-nitro-8-hydroxyquinoline determined against cathepsins B, L and H.

Sequence of cathepsin L (P07711 114-333, species assumed): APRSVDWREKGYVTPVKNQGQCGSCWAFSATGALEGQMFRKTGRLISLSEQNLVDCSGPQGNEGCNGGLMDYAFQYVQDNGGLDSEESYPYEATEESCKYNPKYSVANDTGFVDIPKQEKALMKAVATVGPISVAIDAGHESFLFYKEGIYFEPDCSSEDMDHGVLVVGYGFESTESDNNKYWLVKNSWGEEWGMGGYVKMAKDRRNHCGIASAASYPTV

Mechanism of inhibition: competitive
Ki (substrate Z-FR-AMC, pH 5.5): 175 ± 17.1 µM
Structure (SMILES): O=[N+]([O-])c1ccc(O)c2ncccc12 [Compound 1, 5-nitro-8-hydroxyquinoline]
